Publication PMC6222781, “Structural Optimization of Foldamer-Dendrimer Conjugates as Multivalent Agents against the Toxic Effects of Amyloid Beta Oligomers” (Molecules : A Journal of Synthetic Chemistry and Natural …, 2018)

Assays:
[1] = molecular target: T1, Aβ oligomers (Homo sapiens, UniProt P05067); experiment: Isothermal titration calorimetry (ITC) binding to Aβ oligomers; settings: PBS pH 7.4, 285 K; for Kd: KD ITC, Table 1, Aβ 100 µM in cell, ligand 250 µM in syringe, two independent site model; for ΔG, first binding stage / ΔH, first binding stage / ΔG, second binding stage / ΔH, second binding stage: Table 2, ITC
T1 construct: Ser^26 depsipeptide iso-Aβ (1–42) was used; made in house; host or cells: chemical peptide synthesis (no expression host)
T1 sequence (P05067 672-713 limits assumed): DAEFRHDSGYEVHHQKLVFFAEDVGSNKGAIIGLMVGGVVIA
Method: The binding affinities of 2b–2i to Aβ oligomers were tested in ITC experiments.
In this work, Ser^26 depsipeptide iso-Aβ (1–42) was used, which was synthesized and purified as described previously. The lyophilized iso-Aβ (1–42) was dissolved in MilliQ water to a concentration of 1 mg mL^−1, sonicated for 3 min and the pH was set to 7.0 to initiate an O to N acyl migration, whereby the native sequence can be readily formed. The sample was incubated at room temperature for 10 min. Then the pH was set to 11 and the sample was kept at room temperature for additional 2 h. After the incubation, the Aβ stock solution was aliquoted and stored at −20 °C until use. To obtain Aβ oligomers, the 1 mg mL^−1 aliquot was diluted to a final concentration of 50 μM with 26.67 mM PBS and the pH was set to 7.4 with 1 M HCl. The sample was incubated at 37 °C for 3 h.
Isothermal calorimetric titrations were performed with a Microcal VP-ITC microcalorimeter in pH 7.4 PBS buffer solution. In individual titrations, 10 µL portions of the ligand containing solution were repeatedly injected from the computer-controlled 300-µL microsyringe at intervals of 300 s into the Aβ oligomer solution prepared in the same buffer as the ligand. All measurements were carried out at 285 K. The Aβ concentration in the cell was 100 µM and the total ligand concentration was 250 µM in the syringe and the titration was stopped when the precipitation of the Aβ aggregates became excessive. Control experiments were performed by injecting the ligand into a cell containing buffer with no target, and the heats of dilution were subtracted from those measured in the presence of Aβ. The experimental data were fitted to the two independent site binding models by using a nonlinear least-squares procedure, with ΔHb, ΔHb’, Kd, Kd’ ([…]), n and n’ (number of binding sites for monomer), as adjustable parameters.

[2] = molecular target: T1, Aβ oligomers; experiment: Sandwich ELISA binding of biotin-tagged conjugates to Aβ
Excerpt: To study the role of certain structure elements in the binding affinity, a set of new foldamer sequences were designed (Figure 2) and ligated to lysine-dendron scaffolds having a focal symmetry. This template with biotin affinity tag can be easily synthesized by solid phase peptide synthesis and immobilized on a streptavidin coated support such as the surface of the ELISA plate. Structural changes included fine-tuning the side-chain properties (2b–2d), changing the position of ionic residues (2e) and introducing bulky bicyclic side-chains (2f–2i).
The binding affinities of 2b–2i to Aβ oligomers were tested in ITC experiments. In such cases where the fitting failed due to low heat response or poor solubility, sandwich ELISA experiments were performed to enable the comparison of all conjugates (see Supporting Information for details).
The apparent dissociation constants for the complete set of new conjugates were calculated individually from the data of the ELISA experiments as well. Comparing the KD values of 2f–2i in this case, the replacement of ACHC to ABHC had only a minor effect on the Aβ binding. The cyclic β-amino acid ACHC not only provides the helical conformation of such a short foldamer but also protects the ionic residues from solvent upon binding due to its hydrophobicity.

N=C(N)NCCC[C@@H](CC(=O)N[C@H]1CCCC[C@@H]1C(=O)N[C@H]1CCCC[C@@H]1C(=O)N[C@@H](CC(=O)O)CC(=O)N[C@H]1CCCC[C@@H]1C(=O)NCC(=O)NCC(=O)N[C@@H](CSC1CC(=O)N(CCC(=O)NCCCC[C@H](NC(=O)CCN2C(=O)CC(SC[C@H](NC(=O)CNC(=O)CNC(=O)[C@H]3CCCC[C@@H]3NC(=O)C[C@H](CC(=O)O)NC(=O)[C@H]3CCCC[C@@H]3NC(=O)[C@H]3CCCC[C@@H]3NC(=O)C[C@H](CCCNC(=N)N)NC(=O)[C@H]3CCCC[C@@H]3N)C(N)=O)C2=O)C(=O)NCCCC[C@H](NC(=O)[C@H](CCCCNC(=O)CCN2C(=O)CC(SC[C@H](NC(=O)CNC(=O)CNC(=O)[C@H]3CCCC[C@@H]3NC(=O)C[C@H](CC(=O)O)NC(=O)[C@H]3CCCC[C@@H]3NC(=O)[C@H]3CCCC[C@@H]3NC(=O)C[C@H](CCCNC(=N)N)NC(=O)[C@H]3CCCC[C@@H]3N)C(N)=O)C2=O)NC(=O)CCN2C(=O)CC(SC[C@H](NC(=O)CNC(=O)CNC(=O)[C@H]3CCCC[C@@H]3NC(=O)C[C@H](CC(=O)O)NC(=O)[C@H]3CCCC[C@@H]3NC(=O)[C@H]3CCCC[C@@H]3NC(=O)C[C@H](CCCNC(=N)N)NC(=O)[C@H]3CCCC[C@@H]3N)C(N)=O)C2=O)C(=O)N[C@@H](CCCCNC(=O)CCCC[C@@H]2SC[C@@H]3NC(=O)N[C@@H]32)C(N)=O)C1=O)C(N)=O)NC(=O)[C@H]1CCCC[C@@H]1N (stereo partly shown) [Compound 2a]
Kd ([1]; first binding stage): 27.6 ± 7.74 nM
Kd ([1]; second binding stage): 240 ± 68.7 nM
Kd [2]: 0.95 ± 0.06 nM

N=C(N)NCCC[C@H](NC(=O)[C@H]1CCCC[C@@H]1N)C(=O)N[C@H]1CCCC[C@@H]1C(=O)N[C@H]1CCCC[C@@H]1C(=O)N[C@@H](CC(=O)O)C(=O)N[C@H]1CCCC[C@@H]1C(=O)NCC(=O)NCC(=O)N[C@@H](CSC1CC(=O)N(CCC(=O)NCCCC[C@H](NC(=O)CCN2C(=O)CC(SC[C@H](NC(=O)CNC(=O)CNC(=O)[C@H]3CCCC[C@@H]3NC(=O)[C@H](CC(=O)O)NC(=O)[C@H]3CCCC[C@@H]3NC(=O)[C@H]3CCCC[C@@H]3NC(=O)[C@H](CCCNC(=N)N)NC(=O)[C@H]3CCCC[C@@H]3N)C(N)=O)C2=O)C(=O)NCCCC[C@H](NC(=O)[C@H](CCCCNC(=O)CCN2C(=O)CC(SC[C@H](NC(=O)CNC(=O)CNC(=O)[C@H]3CCCC[C@@H]3NC(=O)[C@H](CC(=O)O)NC(=O)[C@H]3CCCC[C@@H]3NC(=O)[C@H]3CCCC[C@@H]3NC(=O)[C@H](CCCNC(=N)N)NC(=O)[C@H]3CCCC[C@@H]3N)C(N)=O)C2=O)NC(=O)CCN2C(=O)CC(SC[C@H](NC(=O)CNC(=O)CNC(=O)[C@H]3CCCC[C@@H]3NC(=O)[C@H](CC(=O)O)NC(=O)[C@H]3CCCC[C@@H]3NC(=O)[C@H]3CCCC[C@@H]3NC(=O)[C@H](CCCNC(=N)N)NC(=O)[C@H]3CCCC[C@@H]3N)C(N)=O)C2=O)C(=O)N[C@@H](CCCCNC(=O)CCCC[C@@H]2SC[C@@H]3NC(=O)N[C@@H]32)C(N)=O)C1=O)C(N)=O (stereo partly shown) [Compound 2d]
Kd [2]: 7.7 ± 3.06 nM

N=C(N)NCCC[C@@H](CC(=O)N[C@H]1CCCC[C@@H]1C(=O)N[C@@H](CC(=O)O)CC(=O)N[C@H]1CCCC[C@@H]1C(=O)NCC(=O)NCC(=O)N[C@@H](CSC1CC(=O)N(CCC(=O)NCCCC[C@H](NC(=O)CCN2C(=O)CC(SC[C@H](NC(=O)CNC(=O)CNC(=O)[C@H]3CCCC[C@@H]3NC(=O)C[C@H](CC(=O)O)NC(=O)[C@H]3CCCC[C@@H]3NC(=O)C[C@H](CCCNC(=N)N)NC(=O)[C@H]3CCCC[C@@H]3NC(=O)[C@H]3CCCC[C@@H]3N)C(N)=O)C2=O)C(=O)NCCCC[C@H](NC(=O)[C@H](CCCCNC(=O)CCN2C(=O)CC(SC[C@H](NC(=O)CNC(=O)CNC(=O)[C@H]3CCCC[C@@H]3NC(=O)C[C@H](CC(=O)O)NC(=O)[C@H]3CCCC[C@@H]3NC(=O)C[C@H](CCCNC(=N)N)NC(=O)[C@H]3CCCC[C@@H]3NC(=O)[C@H]3CCCC[C@@H]3N)C(N)=O)C2=O)NC(=O)CCN2C(=O)CC(SC[C@H](NC(=O)CNC(=O)CNC(=O)[C@H]3CCCC[C@@H]3NC(=O)C[C@H](CC(=O)O)NC(=O)[C@H]3CCCC[C@@H]3NC(=O)C[C@H](CCCNC(=N)N)NC(=O)[C@H]3CCCC[C@@H]3NC(=O)[C@H]3CCCC[C@@H]3N)C(N)=O)C2=O)C(=O)N[C@@H](CCCCNC(=O)CCCC[C@@H]2SC[C@@H]3NC(=O)N[C@@H]32)C(N)=O)C1=O)C(N)=O)NC(=O)[C@H]1CCCC[C@@H]1NC(=O)[C@H]1CCCC[C@@H]1N (stereo partly shown) [Compound 2e]
Kd [2]: 2.71 ± 0.21 nM

CC(=O)N[C@@H](CCCCNC(=O)CCN1C(=O)CC(SC[C@H](NC(=O)CNC(=O)CNC(=O)[C@H]2CCCC[C@@H]2NC(=O)C[C@H](CC(=O)O)NC(=O)[C@H]2CCCC[C@@H]2NC(=O)[C@H]2CCCC[C@@H]2NC(=O)C[C@H](CCCNC(=N)N)NC(=O)[C@H]2CCCC[C@@H]2N)C(N)=O)C1=O)C(=O)NCC(=O)N[C@@H](CCCCNC(=O)CCN1C(=O)CC(SC[C@H](NC(=O)CNC(=O)CNC(=O)[C@H]2CCCC[C@@H]2NC(=O)C[C@H](CC(=O)O)NC(=O)[C@H]2CCCC[C@@H]2NC(=O)[C@H]2CCCC[C@@H]2NC(=O)C[C@H](CCCNC(=N)N)NC(=O)[C@H]2CCCC[C@@H]2N)C(N)=O)C1=O)C(=O)NCC(=O)N[C@@H](CCCCNC(=O)CCN1C(=O)CC(SC[C@H](NC(=O)CNC(=O)CNC(=O)[C@H]2CCCC[C@@H]2NC(=O)C[C@H](CC(=O)O)NC(=O)[C@H]2CCCC[C@@H]2NC(=O)[C@H]2CCCC[C@@H]2NC(=O)C[C@H](CCCNC(=N)N)NC(=O)[C@H]2CCCC[C@@H]2N)C(N)=O)C1=O)C(=O)NCC(=O)N[C@@H](CCCCNC(=O)CCN1C(=O)CC(SC[C@H](NC(=O)CNC(=O)CNC(=O)[C@H]2CCCC[C@@H]2NC(=O)C[C@H](CC(=O)O)NC(=O)[C@H]2CCCC[C@@H]2NC(=O)[C@H]2CCCC[C@@H]2NC(=O)C[C@H](CCCNC(=N)N)NC(=O)[C@H]2CCCC[C@@H]2N)C(N)=O)C1=O)C(N)=O (stereo partly shown) [Compound 8]
ΔG, first binding stage ([1]; first binding stage): -11.07 kcal/M
ΔH, first binding stage ([1]; first binding stage): 2.31 kcal/M
ΔG, second binding stage ([1]; second binding stage): -8.48 kcal/M
ΔH, second binding stage ([1]; second binding stage): 0.51 kcal/M

N=C(N)NCCC[C@@H](CC(=O)N[C@H]1CCCC[C@@H]1C(=O)N[C@H]1CCCC[C@@H]1C(=O)N[C@@H](CC(=O)O)CC(=O)N[C@H]1CCCC[C@@H]1C(=O)NCC(=O)NCC(=O)N[C@@H](CSSC[C@H](NC(=O)CNC(=O)CNC(=O)[C@H]1CCCC[C@@H]1NC(=O)C[C@H](CC(=O)O)NC(=O)[C@H]1CCCC[C@@H]1NC(=O)[C@H]1CCCC[C@@H]1NC(=O)C[C@H](CCCNC(=N)N)NC(=O)[C@H]1CCCC[C@@H]1NC(=O)CCC(=O)NCCOCCOCCNC(=O)[C@H]1CCCC[C@@H]1NC(=O)C[C@H](CC(=O)O)NC(=O)[C@H]1CCCC[C@@H]1NC(=O)[C@H]1CCCC[C@@H]1NC(=O)C[C@H](CCCNC(=N)N)NC(=O)[C@H]1CCCC[C@@H]1N)C(N)=O)C(N)=O)NC(=O)[C@H]1CCCC[C@@H]1NC(=O)CCC(=O)NCCOCCOCCNC(=O)[C@H]1CCCC[C@@H]1NC(=O)C[C@H](CC(=O)O)NC(=O)[C@H]1CCCC[C@@H]1NC(=O)[C@H]1CCCC[C@@H]1NC(=O)C[C@H](CCCNC(=N)N)NC(=O)[C@H]1CCCC[C@@H]1N [Compound 9]
ΔG, first binding stage ([1]; first binding stage): -9.83 kcal/M
ΔH, first binding stage ([1]; first binding stage): 6.01 kcal/M
ΔG, second binding stage ([1]; second binding stage): -8.48 kcal/M
ΔH, second binding stage ([1]; second binding stage): 1.18 kcal/M
